Assay results reported in PubChem BioAssay (NCI).
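1) Cells in 96-well plates. 2) Compound, 48 h, 5 concentrations. 3) Linear interpolation between surrounding doses. 4) Unreached endpoint = highest concentration. GI50: concentration for 50% inhibition of growth. TGI is the concentration that stops growth completely.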

system: COLO 205 colon; experiment: DTP human tumour cell line panel, 48 h

Row | Compound | GI50 | TGI
1 | O=C1CCCN1c1ccccc1I(=O)=O | > 100 µM | > 100 µM
2 | Nc1ccccc1C(=O)/C=C/c1c(O)ccc2ccccc12 | – | > 100 µM
3 | CC(C)c1[nH]nc2c1N=C(c1ccccc1Cl)c1cc([N+](=O)[O-])ccc1N2 | 10.3 µM | > 25 µM
4 | CCC1CN2CCc3cc(OC)c(OC)cc3C2CC1CC1c2cc(OC)c(OC)cc2CCN1C(=O)C1CCCN1 (stereo not given) | – | 25.7 µM
5 | CC(C(=O)c1ccc(Cl)cc1)/C(=N/NC(=O)NN)C(=O)Nc1cccc(C(F)(F)F)c1 (stereo not given) | – | > 100 µM
6 | CCOP(=O)(OCC)C(C(=O)OC)C(=O)C(=O)Nc1ccc(Cl)cc1Cl (stereo not given) | – | > 100 µM
7 | CC(C)=C1CCC(CN(C)C)C1=O (stereo not given) | – | 63.4 µM
8 | COc1cccc(/C=N/[N-]C(=O)c2ccncc2)c1[O-].COc1cccc(/C=N/[N-]C(=O)c2ccncc2)c1[O-].[O]=[U](=[O])([OH2+])[OH2+] | 4.09 µM | > 100 µM
9 | CC(C)(C)c1ccc2c(c1)S(=O)(=O)Nc1ccc(Cl)cc1NS(=O)(=O)c1cc(C(C)(C)C)ccc1OCCOCCOCCO2 | – | > 100 µM
10 | N#CC(=Nc1ccccc1N(C(=O)c1ccccc1)C(=O)c1ccccc1)c1ccccc1 | – | > 64.6 µM
11 | COc1c(C)n(CCO)ccc1=O | – | > 100 µM
12 | COC(=O)C(=O)C(C(C)=O)C(=O)NCc1ccc(OC)c(OC)c1 (stereo not given) | – | > 100 µM
13 | Nc1c(-c2ccccc2-c2c(N)[n+]([O-])c3ccccc3[n+]2[O-])[n+]([O-])c2ccccc2[n+]1[O-] | – | 23.6 µM
14 | CCOC(=O)NC(=O)c1cn(C(CC)COC(=O)NCCCCCCNC(=O)OCC(CC)n2cc(C(=O)NC(=O)OCC)c(=O)[nH]c2=O)c(=O)[nH]c1=O (stereo not given) | – | > 100 µM
15 | COc1ccc(-c2nc(-c3cc(OC)cc(OC)c3)[nH]c2-c2ccc(OC)cc2)cc1 | 3.68 µM | > 100 µM
16 | O=C(CC(=O)C1CCOC1=O)C(=O)Nc1cccc(Cl)c1 (stereo not given) | – | > 100 µM
17 | Cc1cccc(C2=C/C(=C(\SS/C(C(=O)c3ccc(OCC(=O)O)c(Cl)c3Cl)=C3\C=C(c4cccc(C)c4)SS3)C(=O)c3ccc(OCC(=O)O)c(Cl)c3Cl)SS2)c1 | – | 38.3 µM

Row | Compound | GI50 | TGI
18 | CC(=O)N1CCN(c2ccc(OCC3COC(Cn4ccnc4)(c4ccc(Cl)cc4Cl)O3)cc2)CC1 (stereo not given) | – | 40.8 µM
19 | O=C(Cc1nc2c3c(ccc2[nH]c1=O)C(=O)c1ccccc1C3=O)C(=O)Nc1ccccc1[N+](=O)[O-] | – | 33.5 µM
20 | Nc1nc(-c2ccc(Cl)c([N+](=O)[O-])c2)cs1 | – | > 100 µM
21 | COc1cc(/C=C2\[C@H]3c4c(c(OC)c(C)c(OC)c4OC)CC(C(=O)N2Cc2ccccc2)N3C)c(OC)c(C)c1OC | – | 32.5 µM
22 | CC1(C)CN=C(NN=C(/C=C/c2ccc(C(F)(F)F)cc2)/C=C/c2ccc(C(F)(F)F)cc2)NC1 | 1.35 µM | 2.85 µM
23 | COc1cc(/C=C\c2cc(OC)c(OC)c(OC)c2)cc(N/C=C\C(=O)c2c[nH]c3ccccc23)c1OC | 1.51 µM | 3.2 µM
24 | CCCCCCCCCCNC(=O)CI | 2.38 µM | 6.01 µM
25 | Cc1cc(N/N=C/c2ccccn2)nc2ccccc12 | 0.367 µM | 12.4 µM
26 | O=C(N/C(=C\c1ccc([N+](=O)[O-])cc1)c1nc2ccccc2[nH]1)c1ccccc1 | – | > 100 µM
27 | COC(=O)/C([Se]c1c(C)cc(C)cc1C)=C(/[Se]c1c(C)cc(C)cc1C)C(=O)OC | – | > 100 µM
28 | CC(C)(C)[Si](C)(C)OC1[C@@H](CNC(=O)NC(=O)CCl)O[C@@H](n2cnc3c(N)ncnc32)[C@H]1O[Si](C)(C)C(C)(C)C (stereo not given in full) | 1.45 µM | 3.55 µM
29 | NC(=O)C(=O)CC(=O)c1ccccc1NC1=CC(=O)C(=O)c2ccccc21 | – | > 100 µM
30 | Cc1cc2c(c(C(N)=O)c1C)-c1ccccc1C2=O | – | > 100 µM
31 | COC(=O)/C(=N/O)C(C(=O)C=C(C)C)C(=O)C(=O)Nc1nc2ccc([N+](=O)[O-])cc2s1 (stereo not given) | – | > 100 µM
32 | Cc1ccccc1C1=[N+]([O-])c2ccc(Cl)cc2C1=O | – | 20.2 µM
33 | CCOC(=O)NC(=O)c1cn(C2CCCCC2)c(=O)[nH]c1=O | – | > 100 µM
34 | Cn1c(=O)nc2n(-c3cc(C(F)(F)F)cc(C(F)(F)F)c3)c3ccccc3nc-2c1=O | – | > 100 µM

system: UACC-257 melanoma; experiment: DTP human tumour cell line panel, 48 h

Row | Compound | GI50 | TGI
35 | O=C1CCCN1c1ccccc1I(=O)=O | > 100 µM | > 100 µM
36 | Nc1ccccc1C(=O)/C=C/c1c(O)ccc2ccccc12 | – | > 100 µM
37 | CC(C)c1[nH]nc2c1N=C(c1ccccc1Cl)c1cc([N+](=O)[O-])ccc1N2 | 10.1 µM | > 25 µM
38 | CCC1CN2CCc3cc(OC)c(OC)cc3C2CC1CC1c2cc(OC)c(OC)cc2CCN1C(=O)C1CCCN1 (stereo not given) | – | 41 µM
39 | CC(C(=O)c1ccc(Cl)cc1)/C(=N/NC(=O)NN)C(=O)Nc1cccc(C(F)(F)F)c1 (stereo not given) | – | > 100 µM
40 | CCOP(=O)(OCC)C(C(=O)OC)C(=O)C(=O)Nc1ccc(Cl)cc1Cl (stereo not given) | – | > 100 µM
41 | CC(C)=C1CCC(CN(C)C)C1=O (stereo not given) | – | 31.6 µM
42 | COc1cccc(/C=N/[N-]C(=O)c2ccncc2)c1[O-].COc1cccc(/C=N/[N-]C(=O)c2ccncc2)c1[O-].[O]=[U](=[O])([OH2+])[OH2+] | 4.73 µM | > 54.4 µM
43 | CC(C)(C)c1ccc2c(c1)S(=O)(=O)Nc1ccc(Cl)cc1NS(=O)(=O)c1cc(C(C)(C)C)ccc1OCCOCCOCCO2 | – | > 100 µM
44 | N#CC(=Nc1ccccc1N(C(=O)c1ccccc1)C(=O)c1ccccc1)c1ccccc1 | – | > 100 µM
45 | COc1c(C)n(CCO)ccc1=O | – | > 100 µM
46 | COC(=O)C(=O)C(C(C)=O)C(=O)NCc1ccc(OC)c(OC)c1 (stereo not given) | – | > 100 µM
47 | Nc1c(-c2ccccc2-c2c(N)[n+]([O-])c3ccccc3[n+]2[O-])[n+]([O-])c2ccccc2[n+]1[O-] | – | 35.2 µM
48 | CCOC(=O)NC(=O)c1cn(C(CC)COC(=O)NCCCCCCNC(=O)OCC(CC)n2cc(C(=O)NC(=O)OCC)c(=O)[nH]c2=O)c(=O)[nH]c1=O (stereo not given) | – | > 100 µM
49 | COc1ccc(-c2nc(-c3cc(OC)cc(OC)c3)[nH]c2-c2ccc(OC)cc2)cc1 | 23.8 µM | > 100 µM
50 | O=C(CC(=O)C1CCOC1=O)C(=O)Nc1cccc(Cl)c1 (stereo not given) | – | > 100 µM
51 | CCN1c2ccccc2-c2c3c1cc(C)cc3c1ccccc1[n+]2CC | – | 1.65 µM
52 | Cc1cccc(C2=C/C(=C(\SS/C(C(=O)c3ccc(OCC(=O)O)c(Cl)c3Cl)=C3\C=C(c4cccc(C)c4)SS3)C(=O)c3ccc(OCC(=O)O)c(Cl)c3Cl)SS2)c1 | – | > 77.3 µM
53 | CC(=O)N1CCN(c2ccc(OCC3COC(Cn4ccnc4)(c4ccc(Cl)cc4Cl)O3)cc2)CC1 (stereo not given) | – | 51.1 µM

Row | Compound | GI50 | TGI
54 | O=C(Cc1nc2c3c(ccc2[nH]c1=O)C(=O)c1ccccc1C3=O)C(=O)Nc1ccccc1[N+](=O)[O-] | – | 37 µM
55 | CC1=C(C#N)C(=O)CC(c2ccc(Cl)cc2)N(C)N1 (stereo not given) | – | > 100 µM
56 | Nc1nc(-c2ccc(Cl)c([N+](=O)[O-])c2)cs1 | – | > 100 µM
57 | COc1cc(/C=C2\[C@H]3c4c(c(OC)c(C)c(OC)c4OC)CC(C(=O)N2Cc2ccccc2)N3C)c(OC)c(C)c1OC | – | 39.6 µM
58 | CC1(C)CN=C(NN=C(/C=C/c2ccc(C(F)(F)F)cc2)/C=C/c2ccc(C(F)(F)F)cc2)NC1 | 1.56 µM | 2.96 µM
59 | COc1cc(/C=C\c2cc(OC)c(OC)c(OC)c2)cc(N/C=C\C(=O)c2c[nH]c3ccccc23)c1OC | 3.17 µM | 10.8 µM
60 | CCCCCCCCCCNC(=O)CI | 1.63 µM | 3.39 µM
61 | Cc1cc(N/N=C/c2ccccn2)nc2ccccc12 | 0.395 µM | 5.02 µM
62 | O=C(N/C(=C\c1ccc([N+](=O)[O-])cc1)c1nc2ccccc2[nH]1)c1ccccc1 | – | > 100 µM
63 | COC(=O)/C([Se]c1c(C)cc(C)cc1C)=C(/[Se]c1c(C)cc(C)cc1C)C(=O)OC | – | > 100 µM
64 | CC(C)(C)[Si](C)(C)OC1[C@@H](CNC(=O)NC(=O)CCl)O[C@@H](n2cnc3c(N)ncnc32)[C@H]1O[Si](C)(C)C(C)(C)C (stereo not given in full) | 2.65 µM | 6.93 µM
65 | NC(=O)C(=O)CC(=O)c1ccccc1NC1=CC(=O)C(=O)c2ccccc21 | – | > 75.7 µM
66 | Cc1cc2c(c(C(N)=O)c1C)-c1ccccc1C2=O | – | > 100 µM
67 | COC(=O)/C(=N/O)C(C(=O)C=C(C)C)C(=O)C(=O)Nc1nc2ccc([N+](=O)[O-])cc2s1 (stereo not given) | – | > 100 µM
68 | Cc1ccccc1C1=[N+]([O-])c2ccc(Cl)cc2C1=O | – | 26.4 µM
69 | c1coc(-c2c3ccc(=[N+]4CCCCC4)cc-3oc3cc(N4CCCCC4)ccc23)c1 | 0.0432 µM | 0.191 µM
70 | Cc1[nH]c2ccccc2c1C1Cc2ccccc2N1C(=O)C#Cc1ccc([N+](=O)[O-])cc1 (stereo not given) | – | > 100 µM
71 | CCOC(=O)NC(=O)c1cn(C2CCCCC2)c(=O)[nH]c1=O | – | > 100 µM
72 | Cn1c(=O)nc2n(-c3cc(C(F)(F)F)cc(C(F)(F)F)c3)c3ccccc3nc-2c1=O | – | > 100 µM

system: SF-539 CNS; experiment: DTP human tumour cell line panel, 48 h

Row | Compound | GI50 | TGI
73 | O=C1CCCN1c1ccccc1I(=O)=O | > 100 µM | > 100 µM
74 | Nc1ccccc1C(=O)/C=C/c1c(O)ccc2ccccc12 | – | > 100 µM
75 | CC(C)c1[nH]nc2c1N=C(c1ccccc1Cl)c1cc([N+](=O)[O-])ccc1N2 | 7.27 µM | > 22 µM
76 | CCC1CN2CCc3cc(OC)c(OC)cc3C2CC1CC1c2cc(OC)c(OC)cc2CCN1C(=O)C1CCCN1 (stereo not given) | – | 37.8 µM
77 | CC(C(=O)c1ccc(Cl)cc1)/C(=N/NC(=O)NN)C(=O)Nc1cccc(C(F)(F)F)c1 (stereo not given) | – | > 100 µM
78 | CCOP(=O)(OCC)C(C(=O)OC)C(=O)C(=O)Nc1ccc(Cl)cc1Cl (stereo not given) | – | > 100 µM
79 | CC(C)=C1CCC(CN(C)C)C1=O (stereo not given) | – | > 100 µM
